Measurements taken from patent US11541065B2, “Compositions and methods for treating brain injury” (UNM RAINFOREST INNOVATIONS, priority 2018, dated 2023).

What was measured:
[1] = tested on: ERK MAPK; experiment: ERK MAPK phosphorylation during oxygen-glucose deprivation (OGD) in rat cortical neuron cultures; format: cell-based; conditions: rat cortical neurons
Description: Equal protein from total cell lysates obtained from rat and mice neuronal cultures were resolved in 7.5% SDS-PAGE, and subjected to immunoblotting procedure as described earlier (Podder and Paul, 2009, J Neurochem 110:1095-1106). Blots were analyzed with antibodies as described in each experiment. All primary antibodies (anti-pERK, anti-ERK) and secondary-horse radish peroxidase conjugated antibody concentrations were used according to recommendations provided by the manufacturer. Signals from immune complexes in the blots were developed using West Pico supersignal chemiluminescence reagents and then captured on X-ray films. Densitometric analysis of the images was performed using the Image J software.
At specified time periods (one hour, two hours, and three hours) during OGD alone or OGD in the presence of L-Hcy (50 μM), cells were removed from the chamber and lysed for immunoblot analysis. Some cultures were treated with L-Hcy (three hours) during the OGD insult in the presence or absence of NVP-AAM077 (30 nM; 3 h). […] Cells were then subjected to staining with Hoechst 33342 dye for 15 minutes, washed extensively with PBS, and analyzed using fluorescent microscopy to assess nuclear damage. To quantitatively assess the percentage of pyknotic nuclei, a total of 1000 cells were counted for each set of experiments (Poddar et al., 2010, J Neurochem 115, 1350-1362).

[2] = tested on: rat cortical neuronal cultures; experiment: Neuronal cell death by Hoechst DNA staining, rat cortical neuron cultures; format: cell-based
Description: Neurons were subjected to staining with Hoechst 33342 dye for 15 minutes, washed extensively with PBS, and analyzed using fluorescent microscopy to assess nuclear damage. Imaging was performed with a Zeiss Axiovert 200M fluorescence microscope with attached AxioCam CCD camera using 20× objective lens (Carl Zeiss, Thomwood, N.Y.). To quantitatively assess the percentage of pyknotic nuclei a total of 1000 cells were counted for each set of experiments. Mean±SEM (n=3) were used for statistical comparison using ANOVA (Bonferroni's multiple comparison test). Differences were considered significant when p<0.05.
[…] Glutamate treated cells were then maintained in their original medium for another 17 hours. For some experiments, neurons were treated with L-homocysteine or glutamate in the presence of NVP-AAM077 or PD98059. The neurons were then fixed and stained with Hoechst 33342 dye as previously described (Poddar and Paul, 2009, J Neurochem 110:1095-1106). Percentage of pyknotic nuclei was quantitatively assessed by fluorescent microscopy to determine the extent of neuronal death.

[3] = tested on: control and hyperhomocysteinemic rats subjected to MCAO; experiment: MCAO (60 min) and reperfusion; infarct size and structural integrity by MRI (T2, ADC, FA maps); format: in vivo, male Wistar rats; conditions: for total infarct volume (T2 maps): 24 hours after MCAO
Description: Middle cerebral artery occlusion (MCAO) was performed on both male rats and mice. For rat studies, control and hyperhomocysteinemic male Wistar rats (8-9 weeks, 290-295 g) were subjected to MCAO under anesthesia (2% isoflurane in medical grade oxygen), using the intraluminal method as previously described (Candelario-Jalil, E., et al., 2004, Brain Res 1007:98-108; Deb et al., 2013, J Neurosci 33:17814-17826). Briefly, the right common carotid artery (CCA) was exposed through an incision made in the ventral midline neck region. To prevent improper insertion of the occluding filament, both the external carotid artery and pterygopalatine branch of the internal carotid artery were clipped. A silicon-rubber-coated monofilament (403756, Doccol Corp., Sharon, Mass.) was inserted into the internal carotid artery through an incision made in the CCA, 2 mm proximal from the bifurcation of the CCA, and advanced 18-19 mm from the bifurcation, to occlude the origin of the anterior cerebral, middle cerebral, and posterior communicating arteries. The incision was closed and the rats were allowed to recover from anesthesia. A quick assessment of neurological deficit was done immediately prior to reperfusion and only those animals that had more than 50% of contralateral forelimb flexion and walked in circles to the contralateral side were considered for the study, as previously described (Longa et al., 1989, Stroke 20:84-91). Following 60 minutes of occlusion, the rats were anesthetized and the filament was gently retracted to allow reperfusion. The incision was closed and the rats were allowed to recover from anesthesia. A subset of control and hyperhomocysteinemic rats received a single intravenous injection of GluN2A-NMDAR selective inhibitor NVP-AAM077 (1.2 mg/kg body weight) through the femoral vein, and another subset received a single intraperitoneal injection of GluN2B-NMDAR inhibitor Ro 256981 (6 mg/kg body weight), as previously described (Chaperon et al., 2003, Behav Pharmacol 14:477-87; Fox et al., 2006, Hippocampus 16:907-015). Both NVP-AAM077 and Ro 256981 were administered at the onset of ischemic insult. The rats were then subjected to MRI on days 1, 3, and 14 post-MCAO and a series of behavioral tests was performed between days 7-9 post-MCAO.
Multimodal MRI of rat brain that includes relaxation time imaging and diffusion imaging was performed at 1, 3 and 14 days after MCAO and reperfusion. The rats were placed in a dedicated holder and positioned in the isocenter of a 4.7-Tesla MRI scanner (Bruker Biospin) that is equipped with a 40-cm bore and a gradient of 660 mT/m at rise time within […]. To obtain good signal-to-noise ratio, a small-bore linear RF coil (inner diameter=72 mm) was used for signal excitation, and a single tuned surface coil (RAPID Biomedical, Rimpar, Germany) was used for signal detection (Sood et al., 2009, J Cereb Blood Flow Metab 29:308-316; Taheri, S. and Sood, R., 2007, Magn Reson Imaging 25:613-625; Yang et al., 2013 J Cereb Blood Flow Metab 33:1104-1114). For mice, the MRI was performed only at day 1. The mice were placed in its dedicated holder of inner diameter 72 mm in the 4.7-Tesla MRI scanner with a 40-cm bore size and a gradient rise time/maximum speed of 9000 T/m/s. During MRI, the rats and mice were kept anesthetized with 2% isoflurane in medical grade oxygen. Respiration and heart rate were monitored continuously and body temperature was maintained at 37.0±0.5° C.
For rats, T2-weighted images were acquired with a rapid acquisition with relaxation enhancement (RARE) sequence of Repetition Time (TR)/Echo Time (TE)=5,000 ms/56 ms, Field of View (FOV)=4 cm×4 cm, slice thickness=1 mm, inter-slice distance=1.1 mm, number of slices=12, matrix=256×256 and number of average=3. For mice, T2 weighted images were acquired with a RARE sequence of Repetition Time/Echo Time=5,000 ms/56 ms, Field of View=4 cm×4 cm, slice thickness=1 mm, number of slices=12, matrix=256×256 and number of average=3. […]

[4] = control rats, single injection at onset of ischemic insult (NVP-AAM077 1.2 mg/kg; Ro 256981 6 mg/kg), untreated control 18.65±2.89%
[5] = hyperhomocysteinemic (HHcy) rats, single injection at onset of insult (NVP-AAM077 1.2 mg/kg; Ro 256981 6 mg/kg), untreated HHcy 37.41±2.33%

N[C@@H](CCS)C(=O)O [L-homocysteine]
ERK MAPK phosphorylation during OGD ([1]; OGD in the presence of L-Hcy 50 μM, time course up to three hours): causes sustained ERK MAPK phosphorylation
number of apoptotic cells (pyknotic nuclei) ([2]; rat cortical neurons, L-homocysteine 50 μM, 24 hours, alone vs untreated controls): significant increase in the number of apoptotic cells
cell death (pyknotic nuclei) ([2]; rat neurons, L-homocysteine 50 μM, 18 h, alone): significant increase in cell death

C[C@H](NC(c1cccc2[nH]c(=O)c(=O)[nH]c12)P(=O)(O)O)c1ccc(Br)cc1 (stereo partly drawn) [NVP-AAM077, ({[(1S)-1-(4-bromophenyl)ethyl]amino}-(2,3-dioxo-1,4-dihydroquinoxalin-5-yl)methyl)phosphonic acid]
lesion volume (T2 maps) ([3]; HHcy rats, day 3 after MCAO, NVP-AAM077 1.2 mg/kg, untreated HHcy 38.63±2.75%): 19.61±4.48%
FA value in the infarcted area ([3]; HHcy rats, day 14 after MCAO, NVP-AAM077 1.2 mg/kg, untreated HHcy 0.25±0.01): 0.32±0.01
lesion volume (T2 maps) ([3]; HHcy rats, day 14 after MCAO, NVP-AAM077 1.2 mg/kg, untreated HHcy 27.16±2.18%): 10.76±2.40%
total infarct volume (T2 maps) [3, 4]: 16.07±2.8%
total infarct volume (T2 maps) [3, 5]: 17.98±3.24%
effect on ERK MAPK activation by OGD plus L-homocysteine ([1]; OGD and L-Hcy 50 μM three hours, NVP-AAM077 30 nM): inhibits the activation of ERK MAPK
effect on homocysteine-induced apoptotic cells ([2]; rat cortical neurons, L-homocysteine 50 μM 24 hours, NVP-AAM077 30 nM): significantly reduced the number of apoptotic cells
effect on homocysteine-induced neuronal death ([2]; rat neurons, L-homocysteine 50 μM 18 hours, with NVP-AAM077 30 nM or PD98059 15 μM): Significantly Reduces Homocysteine-Induced Neuronal Death

C[C@@H](CN1CCC(Cc2ccccc2)CC1)[C@@H](O)c1ccc(O)cc1 [Ro 25-6981]
total infarct volume (T2 maps) [3, 4]: 7.46±1.24%
total infarct volume (T2 maps) [3, 5]: 32.48±4.32%
